Reference: patent US7999136B2 (priority 2007, dated 2011)

Key:
[1] = system: Erysiphe graminis f. sp. tritici; experiment: Test of preventive effect on wheat powdery mildew; assay type: in vivo; conditions: wheat (Shirogane), foliage application 500 ppm, 7 days after inoculation
Description: (§1) The controlling effect was evaluated by visually observing the area or lesion spots on each of test plants at the time of investigation and comparing the area of lesion spots on a plant treated with the present compound with that on an untreated plant.
Test of Preventive Effect on Wheat Powdery Mildew (Erysiphe graminis f. sp. tritici)
Each of plastic pots was filled with sandy loam and sown with wheat (cultivar: Shirogane), followed by growing in a greenhouse for 10 days. The present compound 8 was formulated into a flowable formulation according to Formulation Example 6. The flowable formulation was diluted to a predetermined concentration (500 ppm) with water, and foliage application of the dilution was carried out so that the dilution adhered sufficiently to the surfaces of leaves of the grown wheat young seedling. After the foliage application, the plant was air-dried and then inoculated by sprinkling with spores of Erysiphe graminis f. sp. tritici. After the inoculation, the plant was held in a greenhouse at 23° C. for 7 days and the area of lesion spots was investigated.

[2] = system: Puccinia recondita f. sp. tritici; experiment: Test of curative effect on wheat leaf rust; assay type: in vivo; conditions: wheat (Shirogane), foliage application 500 ppm, curative (1 day after inoculation), 6 days after application
Description: as §1
Test of Curative Effect on Wheat Leaf Rust (Puccinia recondita f. sp. tritici)
Each of plastic pots was filled with sandy loam and sown with wheat (cultivar: Shirogane), followed by growing in a greenhouse for 9 days. The plant was inoculated by sprinkling with spores of Puccinia recondita f. sp. tritici. After the inoculation, the plant was held under darkness and high humidity conditions at 23° C. for 1 day and then air-dried to give a seedling infected with Puccinia recondita f. sp. tritici. The present compound 10 was formulated into a flowable formulation according to Formulation Example 6. The flowable formulation was diluted to a predetermined concentration (500 ppm) with water, and foliage application of the dilution was carried out so that the dilution adhered sufficiently to the surfaces of leaves of the above plant. After the foliage application, the plant was air-dried and held under lighting conditions for 6 days, and then the area of lesions was investigated.

C#CCOc1cc(F)c(C(=O)NCC2CCCCC2)cc1F [compound 8]
area of lesion spots on the treated plant relative to that on an untreated plant [1]: ≤ 30%

C#CCOc1cc(F)c(C(=O)NC(C)C(C)C)cc1F (centres unmarked) [compound 10]
area of lesion spots on the treated plant relative to that on an untreated plant [2]: ≤ 30%
